From BindingDB's records for doi:10.1016/j.ejmech.2019.111574 (Chungnam National University, 2019)

Assay: Inhibition of IL-5 receptor in mouse pro-B Y16 cells assessed as decrease in mIL-5 dependent cell proliferation after 48 hrs in presence of 3 units/ml mIL-5 by WST-1 assay

SMILES	IC50 [µM]
CCN(CCO)Cc1nc2c(OCC3CCCCC3)cccc2[nH]1	> 30
c1ccc(CNCc2nc3c(OCC4CCCCC4)cccc3[nH]2)cc1	> 30
COc1ccc(NCc2nc3c(OCC4CCCCC4)cccc3[nH]2)cc1	> 30
OCCN(Cc1nc2c(OCC3CCCCC3)cccc2[nH]1)C1CCCCC1	> 30
OCCCCCNCc1nc2c(OCC3CCCCC3)cccc2[nH]1	> 30
COc1ccc(CNCc2nc3c(OCC4CCCCC4)cccc3[nH]2)cc1	> 30
OCCN(Cc1ccncc1)Cc1nc2c(OCC3CCCCC3)cccc2[nH]1	> 30
OCCCCNCc1nc2c(OCC3CCCCC3)cccc2[nH]1	30
c1ccc(NCc2nc3c(OCC4CCCCC4)cccc3[nH]2)cc1	> 30
CN(CCO)Cc1nc2c(OCC3CCCCC3)cccc2[nH]1	> 30
CC(C)N(CCO)Cc1nc2c(OCC3CCCCC3)cccc2[nH]1	> 30

Compounds with a lower IC50, results first:

IC50 [µM]	SMILES
21	OCCN(Cc1nc2c(OCC3CCCCC3)cccc2[nH]1)CC1CCCCC1
12	OCC(Cc1ccccc1)NCc1nc2c(OCC3CCCCC3)cccc2[nH]1 (configuration not stated)
19	COc1ccc(CN(CCO)Cc2nc3c(OCC4CCCCC4)cccc3[nH]2)cc1
13	OCCN(Cc1ccc(Cl)cc1)Cc1nc2c(OCC3CCCCC3)cccc2[nH]1
7.5	CCCC(CO)NCc1nc2c(OCC3CCCCC3)cccc2[nH]1 (configuration not stated)
22	OCCC(NCc1nc2c(OCC3CCCCC3)cccc2[nH]1)c1ccccc1 (configuration not stated)
20	CCCN(CCO)Cc1nc2c(OCC3CCCCC3)cccc2[nH]1
3.5	CCC(CO)NCc1nc2c(OCC3CCCCC3)cccc2[nH]1 (configuration not stated)
10.6	O=c1c(-c2ccc(O[C@@H]3O[C@H](CO)[C@@H](O)[C@H](O)[C@H]3O)cc2)coc2cc(O)cc(O)c12 [Sophoricoside]
5	OCC(CC1CCCCC1)NCc1nc2c(OCC3CCCCC3)cccc2[nH]1 (configuration not stated)
20	OCCNCc1nc2c(OCC3CCCCC3)cccc2[nH]1
25	OCCN(Cc1ccccc1)Cc1nc2c(OCC3CCCCC3)cccc2[nH]1
28.5	OCCCNCc1nc2c(OCC3CCCCC3)cccc2[nH]1
27.5	CC(C)(CO)NCc1nc2c(OCC3CCCCC3)cccc2[nH]1
26.2	CCCC1O[C@@H]2C[C@H]3[C@@H]4CCC5=CC(=O)C=C[C@]5(C)[C@H]4[C@@H](O)C[C@]3(C)[C@]2(C(=O)CO)O1 (some centres not stated) [BUDESONIDE]
20	OCC(NCc1nc2c(OCC3CCCCC3)cccc2[nH]1)c1ccccc1 (configuration not stated)
